Laboratory results from PubChem BioAssay (NCI).
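Each compound was tested at five concentrations against cells in 96-well plates for 48 hours. TGI denotes the concentration required for complete inhibition of growth.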

Tests used:
Assay in all cases: NCI tumour cell line growth inhibition, 48 h
ACHN renal = tested on: ACHN renal
CAKI-1 renal = tested on: CAKI-1 renal
CCRF-CEM leukemia = tested on: CCRF-CEM leukemia
HL-60(TB) leukemia = tested on: HL-60(TB) leukemia
HT29 colon = tested on: HT29 colon
KM20L2 colon = tested on: KM20L2 colon
MOLT-4 leukemia = tested on: MOLT-4 leukemia
NCI-H23 lung = tested on: NCI-H23 lung
OVCAR-5 ovarian = tested on: OVCAR-5 ovarian
SF-268 CNS = tested on: SF-268 CNS
SF-295 CNS = tested on: SF-295 CNS
SF-539 CNS = tested on: SF-539 CNS
SK-MEL-5 melanoma = tested on: SK-MEL-5 melanoma
SK-OV-3 ovarian = tested on: SK-OV-3 ovarian
SNB-75 CNS = tested on: SNB-75 CNS
SW-620 colon = tested on: SW-620 colon
UACC-257 melanoma = tested on: UACC-257 melanoma
UACC-62 melanoma = tested on: UACC-62 melanoma
HCT-15 colon = tested on: HCT-15 colon
RXF 393 renal = tested on: RXF 393 renal

Row | SMILES | TGI (ACHN renal) [µM] | TGI (CAKI-1 renal) [µM] | TGI (CCRF-CEM leukemia) [µM] | TGI (HL-60(TB) leukemia) [µM] | TGI (HT29 colon) [µM] | TGI (KM20L2 colon) [µM] | TGI (MOLT-4 leukemia) [µM] | TGI (NCI-H23 lung) [µM] | TGI (OVCAR-5 ovarian) [µM] | TGI (SF-268 CNS) [µM] | TGI (SF-295 CNS) [µM] | TGI (SF-539 CNS) [µM] | TGI (SK-MEL-5 melanoma) [µM] | TGI (SK-OV-3 ovarian) [µM] | TGI (SNB-75 CNS) [µM] | TGI (SW-620 colon) [µM] | TGI (UACC-257 melanoma) [µM] | TGI (UACC-62 melanoma) [µM] | TGI (HCT-15 colon) [µM] | TGI (RXF 393 renal) [µM]
1 | CCC1NC(N=Nc2ccc([N+](=O)[O-])cc2)(P(=O)(OC(C)C)OC(C)C)OC1=O (stereo not drawn) | > 100 | > 100 | > 100 | > 100 | > 100 | > 100 | > 100 | > 100 | > 100 | > 100 | > 100 | > 100 | > 100 | > 100 | 97.4 | > 100 | > 100 | > 100 |  | 
2 | CCn1cnnc1-c1nsc2ccccc12 | > 100 |  | > 100 | > 100 | > 100 | > 100 |  | > 100 | 92.2 | > 100 |  | > 100 | > 100 |  | 41.8 | > 100 | > 100 | > 100 | > 100 | > 100
3 | CN(Cc1cnc2c(N)nc(N)nc2n1)c1ccc(Cl)cc1 | > 100 | > 100 | > 100 | > 100 |  |  | > 100 | > 100 | > 100 | > 100 | > 100 | 70.9 | > 100 | > 100 | 29.6 | > 100 | > 100 | > 100 | > 100 | 61.5
4 | CC(C)NC(=O)OCc1c2c(n(C)c1COC(=O)NC(C)C)-c1ccccc1CC2 |  | 25.5 | 7.63 | > 32 | 30.3 | 28 | 8.95 | 19.7 | 31.6 | 28.8 | 30.2 | 34.3 | 29.1 | 42.6 | 29.4 | 26 | 29.7 | 25.5 | 27.2 | 27.3
5 | Cc1ccc2c(=O)c3ccccc3sc2c1 | > 100 | > 100 | > 100 | > 100 | > 100 | > 100 | > 100 | > 100 | > 100 | > 100 |  | > 100 | > 100 | > 100 |  | > 100 |  | > 100 |  | > 100
6 | C[C@@H]1CC[C@@]2(OC1)O[C@H]1C[C@H]3[C@@H]4CC[C@H]5C[C@@H](OC6OC(CO)C(OC7OC(CO)C(O)C(OC8OCC(O)C(O)C8O)C7OC7OC(CO)C(O)C(O)C7O)C(O)C6O)[C@H](O)C[C@]5(C)[C@H]4CC[C@]3(C)[C@H]1[C@@H]2C (stereo partly drawn) | 8.87 | 12.5 | 1.53 | 9.54 | 13.3 |  | 31.1 | 7.39 | 18.9 | 23.7 | 13.4 | 12.8 | 45.8 | 29.8 | 27.9 | 21 | 39.9 | 47.3 | > 33.9 | 27.1
7 | O=C(O)C1CCCCN1c1ccccc1[N+](=O)[O-] (stereo not drawn) | > 100 | > 100 | > 100 | > 100 | > 100 | > 100 | > 100 | > 100 | > 100 | > 100 | > 100 | > 100 | > 100 | > 100 | > 100 | > 100 | > 100 | > 100 | > 100 | > 100
8 | O=C(N/N=C/c1cc(Br)cc(Br)c1[O-])c1ccccc1O.O=C(N/N=C/c1cc(Br)cc(Br)c1[O-])c1ccccc1O.[Co+2] | 11.1 | 5.93 |  | 0.906 | 17.7 | 11.6 | 14.3 | 7.57 | 11.1 | 13.9 | 12.6 | 4.66 | 2.96 | 5.57 | 15.3 | 17.2 | 17.6 | 1.78 | 14.4 | 10.5
9 | O=c1oc2cc(O)ccc2c(O)c1Cc1c(O)c2ccc(O)cc2oc1=O |  | > 100 | > 100 | > 100 | > 100 |  | > 100 | > 100 | > 100 | > 100 | > 100 | > 100 | > 100 | > 100 | > 100 | > 100 | > 100 | > 100 | > 100 | > 100
